In patent US20230286973A1, “PROTEIN SECRETION INHIBITORS” (KEZAR LIFE SCIENCES, priority 2020, published 2023):

What was measured:
[1] = test system: PD1-ss+10aa/Gaussia Luciferase; assay: Dox-Induced PD1-ss-Gluc Assay; assay type: cell-based; conditions: 24 hr Dox induction; 293FRT/TO cells; mean; read-out: 24 hr Dox Inducible PD1ssGluc 293FRT/TO: Mean IC50
How it was run: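 Gaussia luciferase fused downstream of the PD1 signal peptide plus 10 residues was expressed on doxycycline induction in stably transfected Flp-In 293 T-REx cells. Compounds were added with doxycycline and incubated at 37 °C, 5% CO2.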

[2] = test system: TNFα-FL/Gaussia Luciferase; assay: Dox Induced TNFα-FL-Gluc Assay; assay type: cell-based; conditions: for IC50: 24 hr Dox induction, 293FRT/TO cells, mean, read-out: 24 hr Dox Inducible TNFaFLGluc 293FRT/TO: Mean IC50; for 24 hr Dox Inducible TNFaFLGluc 293FRT/TO: TNF/PD1: ratio of TNFaFLGluc IC50 to PD1ssGluc IC50, '<=>' given where both are I.A.
How it was run: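 Hygromycin/blasticidin-selected Flp-In 293 T-REx cells, TNFα-FL/Gaussia luciferase fusion under T-REx control; overnight plating, then compound in DMSO/media with doxycycline at 37 °C, 5% CO2; stereo-undefined structures tested as mixtures.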

[3] = test system: HER3-ss+4aa/Gaussia Luciferase; assay: Dox-Induced Her3-ss-Gluc Assay; assay type: cell-based; conditions: 24 hr Dox induction; 293FRT/TO cells; mean; read-out: 24 hr Dox Inducible Her3(ss + 4)Gluc 293FRT/TO: Mean IC50
How it was run: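 Doxycycline-inducible HER3 signal sequence+4aa/Gaussia luciferase construct, stably integrated in Flp-In 293 T-REx cells; compound dilutions applied with doxycycline at 37° C., 5% CO2.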

[4] = test system: IL-2-FL/Gaussia Luciferase; assay: Dox Induced IL2-FL-Gluc Assay; assay type: cell-based; conditions: for IC50: 24 hr Dox induction, 293FRT/TO cells, mean, read-out: 24 hr Dox Inducible IL2FLGluc 293FRT/TO: Mean IC50; for 24 hr Dox Inducible IL2FLGluc 293FRT/TO: IL2/PD1: ratio of IL2FLGluc IC50 to PD1ssGluc IC50, '<=>' given where both are I.A.
How it was run: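 A hygromycin- and blasticidin-resistant 293 T-REx clone carrying inducible IL-2–Gaussia luciferase (full-length IL-2, residues 1-153) serves as the cell system. After overnight plating, the cells get test compounds together with doxycycline in DMSO/media and are incubated at 37° C, 5% CO2.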

[5] = test system: multiple myeloma cell line NCI-H929; assay: H929 Cell Viability Assay; assay type: cell-based, human; conditions: Homo sapiens, NCI-H929, 48 h, NCI-H929 cells, Celltiter-Glo
How it was run: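 A 48-hour compound treatment of cells in 10% FBS RPMI medium was followed by luciferase-based viability quantification.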

[6] = test system: multiple myeloma cell line U266B1; assay: U266 Cell Viability Assay; assay type: cell-based, human; conditions: Homo sapiens, U-266, 48 h, U266B1 cells, Celltiter-Glo
How it was run: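 After growth in serum-supplemented RPMI 1640, cells received serially diluted compound in DMSO/media and were kept 48 hours before a CellTiter-Glo luminescence readout.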

[7] = Liver Microsome Stability Assay (rat); conditions: rat liver microsomes, with NADPH, 1.0 uM compound
Procedure: (§1) Stability of a compound was assessed in the presence of liver microsomes from various sources—mouse, rat, monkey and human liver microsomes. 1.0 uM compound, 0.4% DMSO in 0.1 M Potassium Phosphate with 1.0 mg/mL liver microsomes, were incubated at 37° C. with or without 1 mM NADPH. The samples were quenched at 0, and 30 minutes.

[8] = Liver Microsome Stability Assay (mouse); conditions: mouse liver microsomes, with NADPH, 1.0 uM compound
Procedure: as §1

[9] = Liver Microsome Stability Assay (human); conditions: human liver microsomes, with NADPH, 1.0 uM compound
Procedure: as §1

[10] = Liver Microsome Stability Assay (monkey); conditions: monkey liver microsomes, with NADPH, 1.0 uM compound
Procedure: as §1

| Structure (SMILES) | IC50 [1] [µM] | IC50 [2] [µM] | IC50 [3] [µM] | IC50 [4] [µM] | EC50 [5] [µM] | EC50 [6] [µM] | Liver Microsome Stability (Multiple Species): Rat - % Remaining after 30 min w/NADPH [7] [%] | Liver Microsome Stability (Multiple Species): Mouse - % Remaining after 30 min w/NADPH [8] [%] | Liver Microsome Stability (Multiple Species): Human - % Remaining after 30 min w/NADPH [9] [%] | Liver Microsome Stability (Multiple Species): Monkey - % Remaining after 30 min w/NADPH [10] [%] | 24 hr Dox Inducible TNFaFLGluc 293FRT/TO: TNF/PD1 [2] | 24 hr Dox Inducible IL2FLGluc 293FRT/TO: IL2/PD1 [4] |
| --- | --- | --- | --- | --- | --- | --- | --- | --- | --- | --- | --- | --- |
| O=C(O)CCCCn1cccc1C(=O)Nc1nc([C@H]2CCCN2c2ccccc2)cs1 [Compound C11] | > 25 | > 25 | > 25 | > 25 | > 25 | > 25 | 83.1 | 52.3 | 65.2 | 76.1 | – | 1 |
| O=C(O)CCn1cccc1C(=O)Nc1nc([C@H]2CCCN2c2ccccc2)cs1 [Compound C12] | > 25 | > 25 | > 25 | > 25 | > 25 | > 25 | 76.3 | 60.4 | 75.1 | 90.9 | – | 1 |
| O=C(O)CCCn1cccc1C(=O)Nc1nc([C@H]2CCCN2c2ccccc2)cs1 [Compound C13] | > 25 | > 25 | > 25 | > 25 | > 25 | > 25 | 87.9 | 64.9 | 82.1 | 81.3 | – | 1 |
| O=C(Nc1nc([C@H]2CCCN2c2ccccc2)cs1)c1cccn1CCCc1nnn[nH]1 [Compound C14, (R)-1-(3-(1H-tetrazol-5-yl)propyl)-N-(4-(1-phenylpyrrolidin-2-yl)thiazol-2-yl)-1H-pyrrole-2-carboxamide] | > 25 | > 25 | > 25 | > 25 | > 25 | > 25 | 78.7 | 57.8 | 74.3 | 90.3 | – | 1 |
| NC(=O)CCn1cccc1C(=O)Nc1nc([C@H]2CCCN2c2ccccc2)cs1 [Compound C15] | > 25 | > 25 | > 25 | > 25 | > 25 | > 25 | 18.3 | 31.7 | 29.3 | 22.4 | – | 1 |
| O=C(Nc1nc([C@H]2CCCN2c2ccccc2)cs1)c1cccn1CCc1nnn[nH]1 [Compound C16, (R)-1-(2-(1H-tetrazol-5-yl)ethyl)-N-(4-(1-phenylpyrrolidin-2-yl)thiazol-2-yl)-1H-pyrrole-2-carboxamide] | 8.08 | > 25 | 8.93 | 6.9 | > 25 | > 25 | 3.26 | 26.7 | 8.13 | 78.9 | >3.09 | 0.85 |
| Cn1cccc1C(=O)Nc1nc([C@H]2CCCN2c2ccccc2)cs1 [Compound C17, (R)-1-methyl-N-(4-(1-phenylpyrrolidin-2-yl)thiazol-2-yl)-1H-pyrrole-2-carboxamide] | 22.3 | > 25 | > 25 | 6.75 | > 25 | > 25 | 10.3 | 9.27 | 58.7 | 30.9 | >1.12 | 0.3 |

These reach a lower IC50 [1]. Values come first.

| IC50 [1] [µM] | IC50 [2] [µM] | IC50 [3] [µM] | IC50 [4] [µM] | EC50 [5] [µM] | EC50 [6] [µM] | Liver Microsome Stability (Multiple Species): Rat - % Remaining after 30 min w/NADPH [7] [%] | Liver Microsome Stability (Multiple Species): Mouse - % Remaining after 30 min w/NADPH [8] [%] | Liver Microsome Stability (Multiple Species): Human - % Remaining after 30 min w/NADPH [9] [%] | Liver Microsome Stability (Multiple Species): Monkey - % Remaining after 30 min w/NADPH [10] [%] | Structure (SMILES) | 24 hr Dox Inducible TNFaFLGluc 293FRT/TO: TNF/PD1 [2] | 24 hr Dox Inducible IL2FLGluc 293FRT/TO: IL2/PD1 [4] |
| --- | --- | --- | --- | --- | --- | --- | --- | --- | --- | --- | --- | --- |
| 5.21 | > 25 | 13.9 | 7.09 | 24.3 | > 25 | 38.8 | 29.5 | 22.6 | 9.66 | O=C(Nc1nc([C@H]2CCCN2c2ccccc2)cs1)c1cccn1Cc1ccc(=O)[nH]c1 [Compound C10] | >4.80 | 1.4 |
| 5.09 | > 25 | 17.5 | 7.65 | 24.1 | > 25 | 8.52 | 12.7 | 15.8 | 4.38 | COCCCCn1cccc1C(=O)Nc1nc([C@H]2CCCN2c2ccccc2)cs1 [Compound C23, (R)-1-(4-methoxybutyl)-N-(4-(1-phenylpyrrolidin-2-yl)thiazol-2-yl)-1H-pyrrole-2-carboxamide] | >4.91 | 1.5 |
| 0.0146 | 0.266 | 0.0387 | 0.0719 | 1.9 | > 25 | 60.2 | 62.6 | 63.8 | 23.6 | Cc1ccc(N2CCC[C@@H]2c2csc(NC(=O)c3cccn3CC3CCOCC3)n2)cc1 [Compound C53, (R)-1-((tetrahydro-2H-pyran-4-yl)methyl)-N-(4-(1-(p-tolyl)pyrrolidin-2-yl)thiazol-2-yl)-1H-pyrrole-2-carboxamide] | 18.2 | 4.9 |
| 0.132 | 1.79 | 0.272 | 0.479 | 6.53 | > 25 | 67.6 | 99.1 | 77.9 | 46.8 | O=C(Nc1nc([C@H]2CCCN2c2ccc(OC(F)(F)F)cc2)cs1)c1cccn1CC1CCOCC1 [Compound C54, (R)-1-((tetrahydro-2H-pyran-4-yl)methyl)-N-(4-(1-(4-(trifluoromethoxy)phenyl)pyrrolidin-2-yl)thiazol-2-yl)-1H-pyrrole-2-carboxamide] | 13.5 | 3.6 |
